According to patent US10251874B2, “Crystalline forms of a JAK inhibitor compound” (THERAVANCE BIOPHARMA R&D IP, LLC, priority 2017, dated 2019):

Tests used:
Tyk2 = target: T1, Tyk2 (Homo sapiens, UniProt P29597); assay: Assay 1: LanthaScreen biochemical JAK kinase assay, Tyk2; conditions: converted from pIC50 by Cheng-Prusoff; ATP at Km 10 μM; read-out: Tyk2 pKi (converted)
T1 construct: GST; purchased Life Technologies
Experimental: A panel of four LanthaScreen JAK biochemical assays (JAK1, 2, 3 and Tyk2) were carried in a common kinase reaction buffer (50 mM HEPES, pH 7.5, 0.01% Brij-35, 10 mM MgCl2, and 1 mM EGTA). Recombinant GST-tagged JAK enzymes and a GFP-tagged STAT1 peptide substrate were obtained from Life Technologies.
The serially diluted compound was pre-incubated with each of the four JAK enzymes and the substrate in white 384-well microplates (Corning) at ambient temperature for lh. ATP was subsequently added to initiate the kinase reactions in 10 μL total volume, with 1% DMSO. […] The plates were allowed to incubate at ambient temperature for lh before being read on the EnVision reader (Perkin Elmer). Emission ratio signals (520 nm/495 nm) were recorded and utilized to calculate the percent inhibition values based on DMSO and background controls.
For dose-response analysis, percent inhibition data were plotted vs. compound concentrations, and IC50 values were determined from a 4-parameter robust fit model with the Prism software (GraphPad Software). Results were expressed as pIC50 (negative logarithm of IC50) and subsequently converted to pK1 (negative logarithm of dissociation constant, Ki) using the Cheng-Prusoff equation.

[1] = system: IL-4 stimulated pSTAT6 in CD3+ T cells; assay: Assay 5: Inhibition of IL-4 stimulated pSTAT6 in CD3+ T cells; type: cell-based; conditions: T-cell; CD3+ T cells in human PBMCs, flow cytometry; read-out: pIC50, inhibition of IL-4 stimulated pSTAT6 (converted)
Experimental: The potency of the test compound for inhibition of interleukin-4 (IL-4) stimulated STAT6 phosphorylation was measured in CD3-positive (CD3+) T cells in human peripheral blood mononuclear cells (PBMCs) isolated from human whole blood (Stanford Blood Center) using flow cytometry. Because IL-4 signals through JAK, this assay provides a measure of JAK cellular potency.
CD3+ T cells were identified using a […] (PE) conjugated anti-CD3 antibody (Clone UCHT1, BD Biosciences), while an Alexa Fluor 647 conjugated anti-pSTAT6 antibody (pY641, Clone 18/P, BD Biosciences) was used to detect STAT6 phosphorylation.
Human peripheral blood mononuclear cells (PBMC) were isolated from human whole blood of healthy donors as in Assays 3 and 4. […] After incubation, cells were washed twice in FACS buffer before being analyzed using a LSRII flow cytometer (BD Biosciences).
To determine the inhibitory potency of the test compound in response to IL-4, the median fluorescent intensity (MFI) of pSTAT6 was measured in CD3+ T cells. IC50 values were determined from analysis of the inhibition curves of MFI vs compound concentration. Data are expressed as pIC50 (negative decadic logarithm IC50).

[2] = system: IL-6 induced pSTAT3 in retina/choroid; assay: Assay 13: Pharmacodynamic assay: inhibition of IL6-induced pSTAT3 in rats; type: in vivo, Lewis rats; conditions: rat, IVT suspension of crystalline compound 1 of Example 2, 15 μg dose, 3 day pre-treatment
Experimental: The ability of a single intravitreal administration of test compound to inhibit IL-6 induced pSTAT3 was measured in rat retina/choroid homogenates.
Suspension formulations were prepared by combining crystalline compound 1 of Example 2 with 0.5% hydroxypropyl methylcellulose (HPMC E5 LV), 0.02% Tween 80, and 0.9% sodium chloride in purified water to attain target concentrations of 3 mg/mL and 10 mg/mL.
Female Lewis rats were intravitreally (IVT) dosed (5 μL per eye) with the suspension formulations or with the drug vehicle. Three days later, IL-6 (Peprotech; 0.1 mg/mL; 5 μL per eye) or vehicle was intravitreally administered to induce pSTAT3.
Ocular tissues were dissected one hour after the second IVT injection with IL-6. The retina/choroid tissues were homogenized and pSTAT3 levels were measured using an ELISA (Cell Signaling Technology). The percent inhibition of IL-6-induced pSTAT3 was calculated in comparison to the vehicle/vehicle and vehicle/IL-6 groups. Inhibition of greater than 100% reflects a reduction of pSTAT3 levels to below those observed in the vehicle/vehicle group.

T1 sequence (P29597 whole entry): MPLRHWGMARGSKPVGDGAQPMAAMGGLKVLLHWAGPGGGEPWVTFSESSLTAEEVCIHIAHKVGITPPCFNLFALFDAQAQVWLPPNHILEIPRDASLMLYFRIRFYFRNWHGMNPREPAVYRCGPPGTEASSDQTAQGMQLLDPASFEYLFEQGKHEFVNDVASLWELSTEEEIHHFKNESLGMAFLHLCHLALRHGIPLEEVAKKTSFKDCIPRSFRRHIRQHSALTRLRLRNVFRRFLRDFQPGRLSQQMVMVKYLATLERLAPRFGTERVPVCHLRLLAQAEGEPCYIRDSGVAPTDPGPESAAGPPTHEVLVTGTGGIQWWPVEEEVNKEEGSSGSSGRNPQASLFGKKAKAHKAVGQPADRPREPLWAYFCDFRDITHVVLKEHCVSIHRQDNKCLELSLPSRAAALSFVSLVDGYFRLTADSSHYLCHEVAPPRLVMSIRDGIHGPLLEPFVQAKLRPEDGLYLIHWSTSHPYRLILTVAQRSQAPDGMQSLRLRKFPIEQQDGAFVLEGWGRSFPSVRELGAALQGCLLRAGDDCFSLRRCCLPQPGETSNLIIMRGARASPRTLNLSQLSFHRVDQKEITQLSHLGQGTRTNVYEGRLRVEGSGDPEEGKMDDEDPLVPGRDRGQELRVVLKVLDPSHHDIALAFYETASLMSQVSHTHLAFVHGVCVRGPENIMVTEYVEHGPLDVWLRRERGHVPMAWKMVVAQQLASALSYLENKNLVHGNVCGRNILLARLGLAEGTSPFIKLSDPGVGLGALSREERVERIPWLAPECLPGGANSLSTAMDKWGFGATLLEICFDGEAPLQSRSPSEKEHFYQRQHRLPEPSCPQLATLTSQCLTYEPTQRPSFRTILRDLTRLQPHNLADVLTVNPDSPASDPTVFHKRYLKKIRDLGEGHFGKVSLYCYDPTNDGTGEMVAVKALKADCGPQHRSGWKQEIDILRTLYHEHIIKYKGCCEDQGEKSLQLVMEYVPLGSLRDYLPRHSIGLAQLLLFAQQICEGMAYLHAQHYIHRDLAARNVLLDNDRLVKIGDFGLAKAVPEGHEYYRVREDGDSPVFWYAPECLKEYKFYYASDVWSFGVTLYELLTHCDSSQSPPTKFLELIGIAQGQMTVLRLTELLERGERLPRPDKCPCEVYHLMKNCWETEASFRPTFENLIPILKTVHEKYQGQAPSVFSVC

## CCc1cc(O)c(F)cc1-c1ccc2c(-c3nc4c([nH]3)CCN(C3CCN(C)CC3)C4)n[nH]c2c1 [Compound 1, 5-ethyl-2-fluoro-4-(3-(5-(1-methylpiperidin-4-yl)-4,5,6,7-tetrahydro-1H-imidazo[4,5-c]pyridin-2-yl)-1H-indazol-6-yl)phenol]
Tyk2
  Ki: 0.158 nM
[1]
  IC50: 7.94 nM
[2]
  inhibition of IL-6-induced pSTAT3 in retina/choroid tissues: 33%
